In patent US9259401B2 (priority 2011, dated 2016):
Where “and” joins values, the source holds several entries; their conditions need not be identical. Identical values can stand only once. Like-named read-outs stand apart in the source and are kept apart here.

Assay: Comparative bioavailability study, curcumin in plasma by HPLC
Format: in vivo, human
Details: for Mean plasma concentration: listed as Curcumin Powder 95%
Method: The bioavailability study was conducted at Amala Cancer Institute, Thrissur, Kerala on a request from the applicant. Twelve healthy subjects were recruited for the purpose of the study. […] The study design chosen was a balanced, open label, two-treatment, two-period, single dose, bioavailability study.
12 Subject were recruited for the study and were asked to avoid consumption of food containing rich turmeric powder or extract for 24 hours preceding each period. […] The following supplements were used for the purpose of the study:
Each of the supplements were administered with 240 ml water in each period.
The study design is open label, two-treatment, two-period, single dose, bioavailability study. […] Subjects were asked to avoid consumption of food containing rich turmeric powder or extract for 24 hours preceding each period. […] There was a washout period of at least 2 weeks between the doses.
Blood was drawn from each subject just prior to dosing and at 1, 2, 4, 6, 8, and 24 hours post-dose. The total blood loss for each subject was approximately 70 ml and there were totally 14 blood samples of 5 ml each time point throughout the study.
The primary efficacy variables were measured in this study were Cmax, AUCO-t and AUCO-∞ and the secondary efficacy variable were as follows Tmax, T½ and Kel. The statistical evaluation was done by Winnonlin Software 5.0.1 version. […] Tmax and T½ were also be recorded and compared for the two products.
Preparation of Sample (Spiked with Standard Solution E): The frozen plasma samples were allowed to attain the room temperature. 1000 μl of the plasma sample was pipetted out and spiked with 100 μl of spiking standard solution E. This solution was vortex for 1 minute and 3.0 ml ethyl acetate (HPLC Grade) was added to the above solutions. The solution was vortex again for 1 minute with the aid of cyclomixer and allowed to settle down at room temperature.
1.5 ml of the upper ethyl acetate layer was pipetted out and evaporated to dryness using vacuum. The dried sample was dissolved in 600 μl of methanol (HPLC Grade) using vortex mixer. This solution was filtered by 0.2 micron membrane filter paper. 100 μl of these filtered solution was injected in HPLC (Waters Alliance System with 2996 PDA detector in isocratic mode). The column used was LiChrospher 100 RP-18 (250×4.6 mm 5 μM particle size) with methanol as the mobile phase and the detection wavelength was 420 nm. To identify and quantized curcuminoids in plasma the chromatographic peaks were compared with standard solution.

[1] = individual subjects, 1 gm curcuminoids oral, listed as Curcumin Extract Powder (min 95% Curcuminoids)

SMILES: COc1cc(C=CC(=O)CC(=O)C=Cc2ccc(O)c(OC)c2)ccc1O [Curcumin, 1,7-bis(4-hydroxy-3-methoxyphenyl)-1,6-heptadien-3,5-dione]
- AUCINF, Max (1 gm curcuminoids oral): 87.74 ng·h/mL
- AUCINF, Min (1 gm curcuminoids oral): 76.09 ng·h/mL
- AUCT, Max (1 gm curcuminoids oral): 198.27 ng·h/mL
- AUCT, Min (1 gm curcuminoids oral): 31.24 ng·h/mL
- Cmax, Max (1 gm curcuminoids oral): 36.11 ng/mL
- Cmax, Min (1 gm curcuminoids oral): 2.48 ng/mL
- Thalf, Geometric Mean (1 gm curcuminoids oral): 7.066 h
- Thalf, Max (1 gm curcuminoids oral): 11.39 h
- Thalf, Mean (1 gm curcuminoids oral): 7.516 h
- Thalf, Median (1 gm curcuminoids oral): 5.95 h
- Thalf, Min (1 gm curcuminoids oral): 5.21 h
- Tmax, Max (1 gm curcuminoids oral): 24.00 h
- Tmax, Min (1 gm curcuminoids oral): 1.00 h
- AUCINF, Mean (mean AUC) (1 gm curcuminoids oral, listed as Curcumin Extract Powder (min 95% Curcuminoids)): 80.433 ng·h/mL
- AUC(0-inf) (human, plasma, po, 1 gm, 1 gm curcuminoids oral, read-out: AUCINF, Geometric Mean): 80.3 ng·h/mL
- AUC(0-inf) (human, plasma, po, 1 gm, 1 gm curcuminoids oral, read-out: AUCINF, Mean (mean AUC)): 80.4 ng·h/mL
- AUC(0-inf) (human, plasma, po, 1 gm, 1 gm curcuminoids oral, read-out: AUCINF, Median): 77.5 ng·h/mL
- AUC(0-t) (human, plasma, po, 1 gm, 1 gm curcuminoids oral, read-out: AUCT, Geometric Mean): 81 ng·h/mL
- AUC(0-t) (human, plasma, po, 1 gm, 1 gm curcuminoids oral, read-out: AUCT, Mean): 98.8 ng·h/mL
- AUC(0-t) (human, plasma, po, 1 gm, 1 gm curcuminoids oral, read-out: AUCT, Median): 77.8 ng·h/mL
- Cmax (human, plasma, po, 1 gm, 1 gm curcuminoids oral, read-out: Cmax, Geometric Mean): 10.5 ng/mL
- Cmax (human, plasma, po, 1 gm, 1 gm curcuminoids oral, read-out: Cmax, Mean): 13.3 ng/mL
- Cmax (human, plasma, po, 1 gm, 1 gm curcuminoids oral, read-out: Cmax, Median): 10.3 ng/mL
- Tmax (human, plasma, po, 1 gm, 1 gm curcuminoids oral, read-out: Tmax, Geometric Mean): 4.06 h
- Tmax (human, plasma, po, 1 gm, 1 gm curcuminoids oral, read-out: Tmax, Mean): 8.25 h
- Tmax (human, plasma, po, 1 gm, 1 gm curcuminoids oral, read-out: Tmax, Median): 3 h
- AUC(0-inf) (human, plasma, po, 1 gm, individual subjects, 1 gm curcuminoids oral, read-out: AUCINF): 76.1 ng·h/mL
- concentration at 0 hr (human, plasma, po, 1 gm, time 0 hr (prior to dosing), 1 gm curcuminoids oral, read-out: Mean plasma concentration): 0 ng/mL
- concentration at 0 hr (human, plasma, po, 1 gm, time 0.00 hr (prior to dosing), individual subjects, single oral dose equivalent to 1 gm curcuminoids, read-out: Individual plasma concentration): 0 ng/mL
- concentration at 0 hr (human, plasma, po, 1 gm, time 0 hr, 1 gm curcuminoids oral, read-out: Geometric Mean plasma concentration): 0 ng/mL
- concentration at 0 hr (human, plasma, po, 1 gm, time 0 hr, 1 gm curcuminoids oral, read-out: Max plasma concentration): 0 ng/mL
- concentration at 0 hr (human, plasma, po, 1 gm, time 0 hr, 1 gm curcuminoids oral, read-out: Median plasma concentration): 0 ng/mL
- concentration at 0 hr (human, plasma, po, 1 gm, time 0 hr, 1 gm curcuminoids oral, read-out: Min plasma concentration): 0 ng/mL
- concentration at 1 hr (human, plasma, po, 1 gm, time 1 hr, 1 gm curcuminoids oral, read-out: Geometric Mean plasma concentration): 1.58 ng/mL
- concentration at 1 hr (human, plasma, po, 1 gm, time 1 hr, 1 gm curcuminoids oral, read-out: Max plasma concentration): 20.6 ng/mL
- concentration at 1 hr (human, plasma, po, 1 gm, time 1 hr, 1 gm curcuminoids oral, read-out: Mean plasma concentration): 5.46 ng/mL
- concentration at 1 hr (human, plasma, po, 1 gm, time 1 hr, 1 gm curcuminoids oral, read-out: Median plasma concentration): 1.66 ng/mL
- concentration at 1 hr (human, plasma, po, 1 gm, time 1 hr, 1 gm curcuminoids oral, read-out: Min plasma concentration): 0.05 ng/mL
- concentration at 2 hr (human, plasma, po, 1 gm, time 2 hr, 1 gm curcuminoids oral, read-out: Geometric Mean plasma concentration): 13.5 ng/mL
- concentration at 2 hr (human, plasma, po, 1 gm, time 2 hr, 1 gm curcuminoids oral, read-out: Max plasma concentration): 19.8 ng/mL
- concentration at 2 hr (human, plasma, po, 1 gm, time 2 hr, 1 gm curcuminoids oral, read-out: Mean plasma concentration): 14.4 ng/mL
- concentration at 2 hr (human, plasma, po, 1 gm, time 2 hr, 1 gm curcuminoids oral, read-out: Median plasma concentration): 14.9 ng/mL
- concentration at 2 hr (human, plasma, po, 1 gm, time 2 hr, 1 gm curcuminoids oral, read-out: Min plasma concentration): 8.39 ng/mL
- concentration at 4 hr (human, plasma, po, 1 gm, time 4 hr, 1 gm curcuminoids oral, read-out: Geometric Mean plasma concentration): 4.89 ng/mL
- concentration at 4 hr (human, plasma, po, 1 gm, time 4 hr, 1 gm curcuminoids oral, read-out: Max plasma concentration): 15.6 ng/mL
- concentration at 4 hr (human, plasma, po, 1 gm, time 4 hr, 1 gm curcuminoids oral, read-out: Mean plasma concentration): 7.07 ng/mL
- concentration at 4 hr (human, plasma, po, 1 gm, time 4 hr, 1 gm curcuminoids oral, read-out: Median plasma concentration): 7.09 ng/mL
- concentration at 4 hr (human, plasma, po, 1 gm, time 4 hr, 1 gm curcuminoids oral, read-out: Min plasma concentration): 0.75 ng/mL
- concentration at 6 hr (human, plasma, po, 1 gm, time 6 hr, 1 gm curcuminoids oral, read-out: Geometric Mean plasma concentration): 3.03 ng/mL
- concentration at 6 hr (human, plasma, po, 1 gm, time 6 hr, 1 gm curcuminoids oral, read-out: Max plasma concentration): 4.87 ng/mL
- concentration at 6 hr (human, plasma, po, 1 gm, time 6 hr, 1 gm curcuminoids oral, read-out: Mean plasma concentration): 3.23 ng/mL
- concentration at 6 hr (human, plasma, po, 1 gm, time 6 hr, 1 gm curcuminoids oral, read-out: Median plasma concentration): 2.77 ng/mL
- concentration at 6 hr (human, plasma, po, 1 gm, time 6 hr, 1 gm curcuminoids oral, read-out: Min plasma concentration): 2.05 ng/mL
- concentration at 8 hr (human, plasma, po, 1 gm, time 8 hr, 1 gm curcuminoids oral, read-out: Geometric Mean plasma concentration): 6.56 ng/mL
- concentration at 8 hr (human, plasma, po, 1 gm, time 8 hr, 1 gm curcuminoids oral, read-out: Max plasma concentration): 36.1 ng/mL
- concentration at 8 hr (human, plasma, po, 1 gm, time 8 hr, 1 gm curcuminoids oral, read-out: Mean plasma concentration): 18.6 ng/mL
- concentration at 8 hr (human, plasma, po, 1 gm, time 8 hr, 1 gm curcuminoids oral, read-out: Median plasma concentration): 18.6 ng/mL
- concentration at 8 hr (human, plasma, po, 1 gm, time 8 hr, 1 gm curcuminoids oral, read-out: Min plasma concentration): 1.19 ng/mL
- concentration at 24 hr (human, plasma, po, 1 gm, time 24 hr, 1 gm curcuminoids oral, read-out: Geometric Mean plasma concentration): 2.23 ng/mL
- concentration at 24 hr (human, plasma, po, 1 gm, time 24 hr, 1 gm curcuminoids oral, read-out: Max plasma concentration): 11.5 ng/mL
- concentration at 24 hr (human, plasma, po, 1 gm, time 24 hr, 1 gm curcuminoids oral, read-out: Mean plasma concentration): 4.27 ng/mL
- concentration at 24 hr (human, plasma, po, 1 gm, time 24 hr, 1 gm curcuminoids oral, read-out: Median plasma concentration): 1.93 ng/mL
- concentration at 24 hr (human, plasma, po, 1 gm, time 24 hr, 1 gm curcuminoids oral, read-out: Min plasma concentration): 0.53 ng/mL
- AUCINF [1]: 87.74 ng·h/mL and 77.46 ng·h/mL
- AUCT [1]: 38.31 ng·h/mL and 53.25 ng·h/mL and 31.24 ng·h/mL and 82.17 ng·h/mL and 175.60 ng·h/mL and 137.89 ng·h/mL and 198.27 ng·h/mL and 73.46 ng·h/mL
- Cmax [1]: 2.48 ng/mL and 7.99 ng/mL and 15.62 ng/mL and 8.39 ng/mL and 9.09 ng/mL and 11.49 ng/mL and 36.11 ng/mL and 14.94 ng/mL
- Thalf [1]: 11.39 h and 5.95 h and 5.21 h
- Tmax [1]: 1.00 h and 4.00 h and 2.00 h and 24.00 h and 8.00 h
- Mean plasma concentration (time 0 hr (prior to dosing), 1 gm curcuminoids oral): 0.0000 ng/mL
- Individual plasma concentration (time 0.00 hr (prior to dosing), individual subjects, single oral dose equivalent to 1 gm curcuminoids): 0.00 ng/mL
- Mean plasma concentration (time 1 hr, 1 gm curcuminoids oral): 5.4638 ng/mL
- Individual plasma concentration (time 1.00 hr, individual subjects, single oral dose equivalent to 1 gm curcuminoids, listed as Curcumin Extract Powder 95%): 2.48 ng/mL and 7.99 ng/mL and 0.84 ng/mL and 0.05 ng/mL and 20.58 ng/mL and 0.85 ng/mL
- Mean plasma concentration (time 2 hr, 1 gm curcuminoids oral): 14.3842 ng/mL
- Individual plasma concentration (time 2.00 hr, individual subjects, single oral dose equivalent to 1 gm curcuminoids, listed as Curcumin Extract Powder 95%): 8.39 ng/mL and 19.82 ng/mL and 14.94 ng/mL
- Mean plasma concentration (time 4 hr, 1 gm curcuminoids oral): 7.0711 ng/mL
- Individual plasma concentration (time 4.00 hr, individual subjects, single oral dose equivalent to 1 gm curcuminoids, listed as Curcumin Extract Powder 95%): 0.75 ng/mL and 4.53 ng/mL and 15.62 ng/mL and 7.09 ng/mL and 7.36 ng/mL
- Mean plasma concentration (time 6 hr, 1 gm curcuminoids oral): 3.2316 ng/mL
- Individual plasma concentration (time 6.00 hr, individual subjects, single oral dose equivalent to 1 gm curcuminoids, listed as Curcumin Extract Powder 95%): 2.05 ng/mL and 4.87 ng/mL and 2.77 ng/mL
- Mean plasma concentration (time 8 hr, 1 gm curcuminoids oral): 18.6496 ng/mL
- Individual plasma concentration (time 8.00 hr, individual subjects, single oral dose equivalent to 1 gm curcuminoids, listed as Curcumin Extract Powder 95%): 1.19 ng/mL and 36.11 ng/mL
- Mean plasma concentration (time 24 hr, 1 gm curcuminoids oral): 4.2698 ng/mL
- Individual plasma concentration (time 24.00 hr, individual subjects, single oral dose equivalent to 1 gm curcuminoids, listed as Curcumin Extract Powder 95%): 2.47 ng/mL and 1.39 ng/mL and 0.65 ng/mL and 9.09 ng/mL and 11.49 ng/mL and 0.53 ng/mL
